Data reported in US20130131018A1, “SUBSTITUTED ISOQUINOLINES AND THEIR USE AS TUBULIN POLYMERIZATION INHIBITORS” (Exonhit S.A., priority 2010, published 2013).
Where a name gives a salt, the structure may show the parent alone.

system: K562 cell line; assay: MTT assay: cytotoxicity against the K562 cell line; type: cell-based; conditions: Homo sapiens, K562 cells, 72 h, growth inhibition
Experimental: Assessment of Cell Viability via MTT Assay: Cytotoxicity of compounds against the K562 cell line was assessed using the [3-(4,5-dimethylthiazol-2-yl)-2,5-diphenyl tetrazolium bromide] (MTT) assay. Fifteen thousand tumor cells were seeded into wells of flat-bottomed 96-well plates. An amount of 2 μL of a dilution series of each compound dissolved in DMSO was added to 198 μL of appropriate growth medium at three replicates per concentration and the plates were incubated in a 5% CO2 incubator at 37° C. After 72 h, the number of metabolically active cells was determined by MTT assay. Absorbance of each well was measured at 550 nm on a Tecan Sunrise reader. Dose-response curves for growth inhibition were generated as a percentage of untreated control. IC50 was determined by nonlinear regression (Prism, Graph Pad Software, Inc.).

| Structure (SMILES) | IC50 [µM] |
| --- | --- |
| CCOc1ccc2c(Cc3cc(OC)c(OC)c(OC)c3)cncc2c1NS(=O)(=O)NC(=O)OC(C)(C)C [Compound 7, tert-butyl N-(7-ethoxy-4-(3,4,5-trimethoxybenzyl)isoquinolin-8-yl)sulfamoylcarbamate] | 0.147 |
| CCOc1c(OC)cc(Cc2cncc3c(OC)c(OC)ccc23)cc1OC [Compound 9, 4-(4-Ethoxy-3,5-dimethoxybenzyl)-7,8-dimethoxyisoquinoline hydrochloride] | 0.376 |
| CCOc1ccc2c(Cc3cc(OC)c(OCC)c(OC)c3)cncc2c1 [Compound 13, 7-Ethoxy-4-(4-ethoxy-3,5-dimethoxybenzyl)isoquinoline hydrochloride] | 0.349 |
| CCOc1ccc2c(Cc3cc(OC)c(OC)c(OC)c3)cncc2c1 [Compound 16, 4-(3,4,5-Trimethoxybenzyl)-7-ethoxyisoquinoline hydrochloride] | 0.435 |
| CCOc1ccc2c(Cc3cc(OC)c(OCCOC)c(OC)c3)cncc2c1O [Compound 22, 4-(4-(2-Methoxyethoxy)-3,5-dimethoxybenzyl)-7-ethoxyisoquinolin-8-ol hydrochloride] | 0.142 |
| COc1ccc2c(Cc3cc(OC)c(OC)c(OC)c3)cncc2c1 [Compound 27, 4-(3,4,5-Trimethoxybenzyl)-7-methoxyisoquinoline hydrochloride] | 0.864 |
| CCOc1ccc2c(Cc3cc(OC)c(OCC4CCC4)c(OC)c3)cncc2c1O [Compound 34, 4-(4-(Cyclobutylmethoxy)-3,5-dimethoxybenzyl)-7-ethoxyisoquinolin-8-ol hydrochloride] | 0.065 |
| CCOc1ccc2c(Cc3cc(OC)c(OCC(CC)CC)c(OC)c3)cncc2c1O [Compound 37, 7-Ethoxy-4-(4-(2-ethylbutoxy)-3,5-dimethoxybenzyl)isoquinolin-8-ol hydrochloride] | 0.899 |
| CCOc1ccc2c(Cc3cc(OC)c(OCC(C)(C)C)c(OC)c3)cncc2c1O [Compound 39, 4-(3,5-Dimethoxy-4-(neopentyloxy)benzyl)-7-ethoxyisoquinolin-8-ol hydrochloride] | 0.4 |
| CCOc1ccc2c(C(=NO)c3cc(OC)c(OC)c(OC)c3)cncc2c1 [Compound 41, (7-ethoxyisoquinolin-4-yl)(3,4,5-trimethoxyphenyl)methanone oxime hydrochloride] | 0.123 |
| CCOc1ccc2c(C(=S)c3cc(OC)c(OC)c(OC)c3)cncc2c1 [Compound 42, (7-Ethoxyisoquinolin-4-yl)(3,4,5-trimethoxyphenyl)methanethione hydrochloride] | 0.0607 |
| CCOc1ccc2c(Cc3cc(OC)c(OCC)c(OC)c3)cncc2c1OC [Compound 46, 7-Ethoxy-4-(4-ethoxy-3,5-dimethoxybenzyl)-8-methoxyisoquinoline hydrochloride] | 0.688 |
| CCOc1ccc2c(C(=O)c3cc(OC)c(OCC)c(OC)c3)cncc2c1OC [Compound 47, (4-Ethoxy-3,5-dimethoxyphenyl)-(7-ethoxy-8-methoxyisoquinolin-4-yl)-methanone hydrochloride] | 0.129 |
| CCOc1ccc2c(Cc3cc(OC)c(OCC(=O)OC)c(OC)c3)cncc2c1O [Compound 48, Methyl 2-(4-((7-ethoxy-8-hydroxyisoquinolin-4-yl)methyl)-2,6-dimethoxyphenoxy)acetate hydrochloride] | 0.812 |
| CCOc1ccc2c(Cc3cc(OC)c(OCC#N)c(OC)c3)cncc2c1O [Compound 50, 2-(4-((7-Ethoxy-8-hydroxyisoquinolin-4-yl)methyl)-2,6-dimethoxyphenoxy)acetonitrile hydrochloride] | 0.0698 |
| CCOc1ccc2c(Cc3cc(OC)c(NCc4ccccc4)c(OC)c3)cncc2c1O [Compound 51, 4-(4-(Benzylamino)-3,5-dimethoxybenzyl)-7-ethoxyisoquinolin-8-ol hydrochloride] | 0.741 |

| Structure (SMILES) | IC50 [µM] |
| --- | --- |
| CCOc1ccc2c(Cc3cc(OC)c(Nc4ccccc4)c(OC)c3)cncc2c1O [Compound 52, 4-(3,5-Dimethoxy-4-(phenylamino)benzyl)-7-ethoxyisoquinolin-8-ol hydrochloride] | 0.118 |
| CCOc1ccc2c(C(=O)c3cc(OC)c(OCC)c(OC)c3)cncc2c1OCc1ccccc1 [Compound 55, (8-(Benzyloxy)-7-ethoxyisoquinolin-4-yl)(4-ethoxy-3,5-dimethoxyphenyl)methanone] | 0.422 |
| CCCCCOc1c(OC)cc(Cc2cncc3c(O)c(OCC)ccc23)cc1OC [Compound 63, 4-(3,5-Dimethoxy-4-(pentyloxy)benzyl)-7-ethoxyisoquinolin-8-ol hydrochloride] | 0.213 |
| CCCOc1c(OC)cc(Cc2cncc3c(OC(=S)N(C)C)c(OCC)ccc23)cc1OC [Compound 68, O-(4-(3,5-Dimethoxy-4-propoxybenzyl)-7-ethoxyisoquinolin-8-yl) dimethylcarbamothioate hydrochloride] | 0.152 |
| CCOc1ccc2c(Cc3cc(Cl)c(OC)c(Cl)c3)cncc2c1O [Compound 69, 4-(3,5-Dichloro-4-methoxybenzyl)-7-ethoxyisoquinolin-8-ol hydrochloride] | 0.238 |
| CCOc1ccc2c(Cc3cc(I)c(OC)c(I)c3)cncc2c1O [Compound 70, 4-(3,5-Diiodo-4-methoxybenzyl)-7-ethoxyisoquinolin-8-ol hydrochloride] | 0.0929 |
| CCOc1ccc2c(Cc3cc(Br)c(OC)c(OC)c3)cncc2c1O [Compound 71, 4-(3-Bromo-4,5-dimethoxybenzyl)-7-ethoxyisoquinolin-8-ol hydrochloride] | 0.026 |
| CCOc1ccc2c(Cc3cc(I)c(OC)c(OC)c3)cncc2c1O [Compound 72, 7-Ethoxy-4-(3-iodo-4,5-dimethoxybenzyl)isoquinolin-8-ol hydrochloride] | 0.0183 |
| CCOc1ccc2c(Cc3cc(OC)c(CC)c(OC)c3)cncc2c1O [Compound 73, 7-Ethoxy-4-(4-ethyl-3,5-dimethoxybenzyl)isoquinolin-8-ol hydrochloride] | 0.335 |
| CCOc1ccc2c(Cc3cc(OC)c(OCC)c([N+](=O)[O-])c3)cncc2c1O [Compound 74, 7-ethoxy-4-(4-ethoxy-3-methoxy-5-nitrobenzyl)isoquinolin-8-ol hydrochloride] | 0.238 |
| CCOc1ccc2c(Cc3cc(N)c(OCC)c(OC)c3)cncc2c1O [Compound 75, 4-(3-Amino-4-ethoxy-5-methoxybenzyl)-7-ethoxyisoquinolin-8-ol hydrochloride] | 0.237 |
| CCOc1ccc2c(Cc3cc(OC)c(N4CCCC4)c(OC)c3)cncc2c1O [Compound 76, 4-(3,5-Dimethoxy-4-(pyrrolidin-1-yl)benzyl)-7-ethoxyisoquinolin-8-ol hydrochloride] | 0.312 |
| CCOc1ccc2c(Cc3cc(Br)c(OCC)c(OC)c3)cncc2c1O [Compound 77, 4-(3-Bromo-4-ethoxy-5-methoxybenzyl)-7-ethoxyisoquinolin-8-ol hydrochloride] | 0.0486 |
| CCOc1ccc2c(C(=O)c3cc(OC)c(OCC(C)C)c(OC)c3)cncc2c1O [Compound 79, (7-Ethoxy-8-hydroxyisoquinolin-4-yl)(4-isobutoxy-3,5-dimethoxyphenyl)methanone hydrochloride] | 0.0121 |
| CCOc1ccc2c(Cc3cc(OC)c(OC)c(OCC(F)(F)F)c3)cncc2c1O [Compound 87, 4-(3,4-Dimethoxy-5-(2,2,2-trifluoroethoxy)benzyl)-7-ethoxyisoquinolin-8-ol hydrochloride] | 0.254 |
